Laboratory results taken from patent US20240041042A1, “1-(PYRIDYL)-5-AZINYLPYRAZOLE DERIVATIVES, AND THEIR USE FOR CONTROL OF UNDESIRED PLANT GROWTH” (Bayer Aktiengesellschaft, priority 2020, published 2024).

How the values were obtained:
Type in all cases: in vivo
Avena fatua (AVEFA) = assay: Pre-emergence herbicidal action against AVEFA; conditions: visual scoring after about 3 weeks vs untreated controls
How it was run: (§1)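 Read-out is visual percent damage relative to untreated pots, with 100% meaning dead plants and 0% meaning no difference, assessed roughly three weeks after treatment. Compounds were applied pre-emergence to the covering soil at up to 320 g/ha.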

Setaria viridis (SETVI) [1] = assay: Post-emergence herbicidal action against SETVI
How it was run: (§2)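 Post-emergence greenhouse spray, one-leaf stage, 600 l/ha water plus 0.5% additive; WP or EC formulations; application rates 320 g/ha or lower. Visual % damage vs untreated controls at ~3 weeks.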

[2] = tested on: Amaranthus retroflexus (AMARE); assay: Pre-emergence herbicidal action against AMARE; conditions: visual scoring after about 3 weeks vs untreated controls
How it was run: as §1

Setaria viridis (SETVI) [3] = assay: Pre-emergence herbicidal action against SETVI
How it was run: as §1

[4] = tested on: Polygonum convolvulus (POLCO); assay: Pre-emergence herbicidal action against POLCO
How it was run: as §1

Lolium rigidum (LOLRI) = assay: Post-emergence herbicidal action against LOLRI
How it was run: as §2

[5] = tested on: Pharbitis purpurea (PHBPU); assay: Post-emergence herbicidal action against PHBPU
How it was run: as §2

[6] = tested on: Polygonum convolvulus (POLCO); assay: Post-emergence herbicidal action against POLCO
How it was run: as §2

[7] = tested on: Alopecurus myosuroides (ALOMY); assay: Post-emergence herbicidal action against ALOMY; conditions: visual rating about 3 weeks after treatment vs untreated controls (100% = plants have died, 0% = like control plants)
How it was run: as §2

[8] = tested on: Abutilon theophrasti (ABUTH); assay: Pre-emergence herbicidal action against ABUTH; conditions: 100% = plants have died
How it was run: as §1

[9] = Dosage column 320 g/ha (title prints 3200 g/ha), scored visually after about 3 weeks
[10] = 80 g/ha, scored visually after about 3 weeks vs untreated controls, 0% = like control plants

Structure (SMILES)	Pre-emergence action against AVEFA in % (Avena fatua (AVEFA); 80 g/ha)	Pre-emergence action against AVEFA in % (Avena fatua (AVEFA); 320 g/ha)	Post-emergence action against SETVI in % (Setaria viridis (SETVI) [1]; dosage 80 g/ha)	Post-emergence action against SETVI in % (Setaria viridis (SETVI) [1]; dosage 320 g/ha)	Pre-emergence action against AMARE in % ([2]; 80 g/ha)	Pre-emergence action against AMARE in % ([2]; 320 g/ha)	Pre-emergence action against SETVI in % (Setaria viridis (SETVI) [3]; dosage 80 g/ha)	Pre-emergence action against SETVI in % (Setaria viridis (SETVI) [3]; dosage 320 g/ha)	Pre-emergence action against POLCO in % ([4]; dosage 80 g/ha)	Pre-emergence action against POLCO in % ([4]; dosage 320 g/ha)	Post-emergence action against LOLRI in % (Lolium rigidum (LOLRI); dosage 80 g/ha)	Post-emergence action against LOLRI in % (Lolium rigidum (LOLRI); dosage 320 g/ha)	Post-emergence action against PHBPU in % ([5]; dosage 80 g/ha)	Post-emergence action against PHBPU in % ([5]; dosage 320 g/ha)	Post-emergence action against POLCO in % ([6]; dosage 80 g/ha)	Post-emergence action against POLCO in % ([6]; dosage 320 g/ha)	Post-emergence action against ALOMY in % ([7]; 80 g/ha)	Post-emergence action against ALOMY in % ([7]; 320 g/ha)	Pre-emergence action against ABUTH [8, 9]	Pre-emergence action against ABUTH [8, 10]
CCOC(=O)COc1nn(-c2ccccn2)c(-c2ccc(F)nc2)c1Br [Example I-02]	90%	100%	80%	80%	100%	100%	100%	100%	80%	80%	80%	80%	90%	100%	80%	80%	80%	100%	–	–
COC(=O)COc1nn(-c2ncccc2F)c(-c2cncc(F)c2)c1Br [Example I-16]	–	90%	80%	80%	100%	100%	90%	100%	90%	90%	–	–	90%	90%	–	–	90%	90%	–	–
O=C(O)COc1nn(-c2ncccc2F)c(-c2ccc(F)nc2)c1Br [Example I-17]	80%	100%	80%	80%	100%	100%	100%	100%	90%	100%	–	80%	–	80%	–	–	90%	90%	90%	–
C[C@@H](Oc1nn(-c2ncccc2F)c(-c2ccc(F)nc2)c1Br)C(=O)O [Example I-18]	90%	100%	80%	80%	100%	100%	100%	100%	100%	100%	–	80%	–	–	–	–	90%	100%	90%	80%
O=C(O)COc1nn(-c2ccccn2)c(-c2cncnc2)c1Br [Example I-66]	–	90%	80%	90%	90%	100%	100%	100%	90%	90%	–	90%	–	80%	80%	90%	100%	100%	–	–
O=C(O)COc1nn(-c2nc(F)ccc2F)c(-c2cncc(F)c2)c1C1CC1 [Example I-148]	80%	90%	80%	80%	100%	100%	90%	100%	80%	90%	80%	80%	80%	90%	–	–	80%	90%	–	–
COC(=O)COc1nn(-c2nc(F)ccc2F)c(-c2cncc(F)c2)c1C1CC1 [Example I-164]	90%	90%	80%	80%	100%	100%	100%	100%	–	100%	80%	90%	80%	90%	–	–	100%	100%	80%	–
COC(=O)[C@@H](C)Oc1nn(-c2ccccn2)c(-c2cncc(F)c2)c1Cl [Example I-189]	90%	90%	90%	90%	100%	100%	100%	100%	100%	100%	100%	100%	90%	90%	–	–	80%	90%	90%	80%
CCOC(=O)COc1nn(-c2nc(F)ccc2F)c(-c2cncc(F)c2)c1Br [Example I-193]	–	90%	–	90%	80%	100%	100%	100%	80%	100%	–	90%	90%	100%	80%	80%	90%	100%	–	–
COC(=O)[C@@H](C)COC(=O)COc1nn(-c2ccccn2)c(-c2cncc(F)c2)c1Br [Example I-194]	80%	90%	90%	90%	100%	100%	90%	100%	80%	100%	80%	90%	90%	90%	–	–	90%	90%	80%	–
COC(=O)C(C)COC(=O)C(C)Oc1nn(-c2ccccn2)c(-c2ccc(F)nc2)c1Cl (centres unmarked) [Example I-291]	80%	90%	80%	80%	80%	100%	90%	90%	80%	90%	80%	80%	80%	90%	80%	80%	80%	80%	–	–
